The values below are quoted from earlier work in publication PMC4340357 (Journal of Chemical Information and Modeling, 2015).

The series concerns the target C. perfringens neuraminidase. The following applies: read-out: IC50 against C. perfringens neuraminidase.

For orientation: IC50 means the point on the concentration scale where inhibition reaches its midpoint. Take `CC(C)=CCc1c(O)c(CC=C(C)C)c2oc3c(O)ccc(O)c3c(=O)c2c1O` [Gartanin]: the IC50 is 2900 ± 300 nM.
